The text below walks through data of ChEMBL document CHEMBL3879914, “Inhibitors of central nervous system vasoactive inhibitory peptide receptor 2” (2014).

Test [1] addresses T1, Vasoactive intestinal polypeptide receptor 2 (Homo sapiens) (UniProt P41587).
T1 sequence (whole entry): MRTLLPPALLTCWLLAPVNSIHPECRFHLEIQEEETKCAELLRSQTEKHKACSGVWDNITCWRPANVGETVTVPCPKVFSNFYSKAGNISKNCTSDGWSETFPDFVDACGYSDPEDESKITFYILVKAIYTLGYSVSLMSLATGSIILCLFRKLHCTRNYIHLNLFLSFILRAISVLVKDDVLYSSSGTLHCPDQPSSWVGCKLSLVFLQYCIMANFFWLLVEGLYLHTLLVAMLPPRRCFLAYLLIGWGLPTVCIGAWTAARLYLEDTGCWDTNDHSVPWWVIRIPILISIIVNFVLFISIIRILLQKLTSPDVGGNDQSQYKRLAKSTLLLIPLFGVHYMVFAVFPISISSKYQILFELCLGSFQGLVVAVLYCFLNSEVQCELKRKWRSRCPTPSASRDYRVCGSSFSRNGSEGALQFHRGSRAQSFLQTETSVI
The test can be described thus: Antagonist activity at recombinant human N-terminal signal peptide/FLAG epitope-tagged VIPR2 expressed in HEK293 cells co-expressing CAMYEL assessed as inhibition of VIP-induced cAMP accumulation at 0.5 uM preincubated for 5 mins with luciferin, coelenterazine H followed by VIP addition measured after 5 mins by BRET assay relative to control. The class given is functional, cell-based. (Changes in cAMP serve as a functional read-out for many G protein-coupled receptors.)

In test [2] the target is T1, Vasoactive intestinal polypeptide receptor 2 (Homo sapiens). The test can be described thus: Antagonist activity at recombinant human N-terminal signal peptide/FLAG epitope-tagged VIPR2 expressed in HEK293 cells co-expressing CAMYEL assessed as inhibition of VIP-induced cAMP accumulation at 1 uM preincubated for 5 mins with luciferin, coelenterazine H followed by VIP addition measured after 5 mins by BRET assay relative to control. The class given is functional, cell-based.

Test [3] has the same target. As to the kind of experiment: Antagonist activity at recombinant human N-terminal signal peptide/FLAG epitope-tagged VIPR2 expressed in HEK293 cells co-expressing CAMYEL assessed as inhibition of VIP-induced cAMP accumulation at 5 uM preincubated for 5 mins with luciferin, coelenterazine H followed by VIP addition measured after 5 mins by BRET assay relative to control. The test is classed as functional, cell-based.

The target is the same in test [4]. The test can be described thus: Antagonist activity at recombinant human N-terminal signal peptide/FLAG epitope-tagged Rluc8-fused VIPR2 expressed in HEK293 cells assessed as inhibition of VIP-induced human mVenus-beta-arrestin2 binding at 0.5 uM preincubated for 5 mins with luciferin, coelenterazine H followed by VIP addition measured after 5 mins by BRET assay relative to control. The class given is cell-based. In general terms: In BRET a luciferase serves as donor, and the signal depends on an acceptor being close.

Test [5] shares this target. As to the kind of experiment: Antagonist activity at recombinant human N-terminal signal peptide/FLAG epitope-tagged Rluc8-fused VIPR2 expressed in HEK293 cells assessed as inhibition of VIP-induced human mVenus-beta-arrestin2 binding at 5 uM preincubated for 5 mins with luciferin, coelenterazine H followed by VIP addition measured after 5 mins by BRET assay relative to control. The class given is cell-based.

The target is the same in test [6]. As to the kind of experiment: Antagonist activity at recombinant human N-terminal signal peptide/FLAG epitope-tagged Rluc8-fused VIPR2 expressed in HEK293 cells assessed as inhibition of VIP-induced human mVenus-beta-arrestin2 binding at 1 uM preincubated for 5 mins with luciferin, coelenterazine H followed by VIP addition measured after 5 mins by BRET assay relative to control. The class given is cell-based.

For the molecule `O=C(Cc1cccc(Cl)c1)NC[C@@H](O)C[C@@H](Cc1ccccc1)C(=O)N[C@H]1c2ccccc2C[C@H]1O`, the inhibition (as a rule, the change of the read-out against control, counted positive when it falls) in test [1] is 14.4%; in test [2] it was 16%; in test [3], 26.5%; in test [4], 11.3 to 21.9%; in test [5] it was 17.2%; in test [6], 20.1%.
For the molecule `CCCNc1ccc(S(=O)(=O)NC[C@@H](O)C[C@@H](Cc2ccccc2)C(=O)N[C@H]2c3ccccc3C[C@H]2O)cc1`, the inhibition was -2.9% in test [1]; 11.3% in test [2]; 24.5% in test [3]; 4.1 to 15.6% in test [4]; 6.7% in test [5]; 2.6% in test [6].
For `Cc1cc(S(=O)(=O)NC[C@@H](O)C[C@@H](Cc2ccccc2)C(=O)N[C@H]2c3ccccc3C[C@H]2O)c(C)cc1Cl`, the inhibition in test [1] is 20.6%; in test [2] it was 21.6%; in test [3], 41.1%; in test [4], 17.6 to 20.9%; in test [5] it was 0.6%; in test [6], 30.2%.
With `CNC(=O)[C@H](Cc1ccccc1)C[C@H](O)CNS(=O)(=O)c1ccc([N+](=O)[O-])cc1`, the inhibition is 7% in test [1]; 8.3% in test [2]; 9.3% in test [3]; 6.25 to 6.9% in test [4]; 3.2% in test [5]; 4% in test [6].
Turning to `O=C(NC1CCCC1)[C@H](Cc1ccccc1)C[C@H](O)CNS(=O)(=O)c1ccc([N+](=O)[O-])cc1`, the inhibition in test [1] was -2.1%; in test [2], -4.9%; in test [3] it was 4.7%; in test [4], 6.95 to 17.4%; in test [5], 9.2%; in test [6], 17.1%.
As to `O=C(N[C@H]1c2ccccc2C[C@H]1O)[C@H](Cc1ccccc1)C[C@H](O)CNS(=O)(=O)c1ccc(C(F)(F)F)cc1`, the inhibition was 42% in test [1]; 63.1% in test [2]; 98.5% in test [3]; 58.1 to 95.7% in test [4]; 92.9% in test [5]; 83% in test [6].
As for `O=C(NC1CCCC1)c1ccc(S(=O)(=O)NC[C@@H](O)C[C@@H](Cc2ccccc2)C(=O)N[C@H]2c3ccccc3C[C@H]2O)cc1`, the inhibition is 15.2% in test [1]; 19.6% in test [2]; 31.8% in test [3]; 3.9 to 15.9% in test [4]; 0.1% in test [5]; 0.5% in test [6].
With `CC(C)C(=O)Nc1ccc(S(=O)(=O)NC[C@@H](O)C[C@@H](Cc2ccccc2)C(=O)N[C@H]2c3ccccc3C[C@H]2O)cc1`, the inhibition in test [1] was 1%; in test [2] it was 6.9%; in test [3], 16.7%; in test [4] it was 4.6 to 5.3%; in test [5] it was -7.5%; in test [6], 5.1%.
For the molecule `O=C(Nc1ccc(S(=O)(=O)NC[C@@H](O)C[C@@H](Cc2ccccc2)C(=O)N[C@H]2c3ccccc3C[C@H]2O)cc1)C1CC1`, the inhibition in test [1] is -2.4%; in test [2] it was 23%; in test [3], 34.3%; in test [4] it was 6.4 to 15.1%; in test [5], -4.2%; in test [6] it was -0.3%.
Take `O=C(N[C@H]1c2ccccc2C[C@H]1O)[C@H](Cc1ccccc1)C[C@H](O)CNS(=O)(=O)c1ccc(C(=O)N2CCOCC2)cc1`: the inhibition in test [1] is -1.4%; in test [2] it was 0.1%; in test [3] it was 25.5%; in test [4], 4.1 to 10.1%; in test [5], -5.4%; in test [6] it was 1.8%.
With `O=C(NC[C@@H](O)C[C@@H](Cc1ccccc1)C(=O)N[C@H]1c2ccccc2C[C@H]1O)c1ccc([N+](=O)[O-])cc1`, the inhibition in test [1] is 14%; in test [2] it was 22.3%; in test [3], 21.1%; in test [4], -0.5 to 18.8%; in test [5] it was 16.4%; in test [6], 18.6%.
On to `O=C(NCc1ccccc1)[C@H](Cc1ccccc1)C[C@H](O)CNS(=O)(=O)c1ccc([N+](=O)[O-])cc1`, for which the inhibition is -1.1% in test [1]; -1.3% in test [2]; -2.9% in test [3]; 1.8 to 10.7% in test [4]; 24.2% in test [5]; 4.4% in test [6].
As to `COc1ccc(S(=O)(=O)NC[C@@H](O)C[C@@H](Cc2ccccc2)C(=O)N[C@H]2c3ccccc3C[C@H]2O)cc1OC`, the inhibition is 21.1% in test [1]; 20.4% in test [2]; 28.2% in test [3]; 10.5 to 30.1% in test [4]; 32% in test [5]; 23.2% in test [6].
As to `O=C(NC[C@@H](O)C[C@@H](Cc1ccccc1)C(=O)N[C@H]1c2ccccc2C[C@H]1O)c1cccc(Br)c1`, the inhibition in test [1] was 17.4%; in test [2], 18.5%; in test [3] it was 20.3%; in test [4] it was -3.8 to 12.8%; in test [5] it was 5.2%; in test [6], 6.8%.
In the case of `N#Cc1ccc(S(=O)(=O)NC[C@@H](O)C[C@@H](Cc2ccccc2)C(=O)N[C@H]2c3ccccc3C[C@H]2O)cc1`, the inhibition in test [1] is 27.3%; in test [2] it was 43.6%; in test [3] it was 93.1%; in test [4], 38.5 to 91.8%; in test [5], 90.4%; in test [6] it was 59.5%.
In the case of `CC(C)CNc1ccc(S(=O)(=O)NC[C@@H](O)C[C@@H](Cc2ccccc2)C(=O)N[C@H]2c3ccccc3C[C@H]2O)cc1`, the inhibition in test [1] was 21.6%; in test [2] it was 16.7%; in test [3] it was 27.4%; in test [4], 10.2 to 19.6%; in test [5] it was 11.9%; in test [6], 5.2%.
Regarding `COc1cc(C(=O)NC[C@@H](O)C[C@@H](Cc2ccccc2)C(=O)N[C@H]2c3ccccc3C[C@H]2O)cc(OC)c1OC`, the inhibition in test [1] was 15.6%; in test [2], 20%; in test [3], 9.3%; in test [4], 13.7 to 29.6%; in test [5], 18%; in test [6], 37.2%.
With `O=C(N[C@H]1c2ccccc2C[C@H]1O)[C@H](Cc1ccccc1)C[C@H](O)CNS(=O)(=O)c1cccc([N+](=O)[O-])c1`, the inhibition was 18.4% in test [1]; 15.2% in test [2]; 21.3% in test [3]; 24.2 to 27.4% in test [4]; 33.4% in test [5]; 35.1% in test [6].
With `CC(C)c1ccc(S(=O)(=O)NC[C@@H](O)C[C@@H](Cc2ccccc2)C(=O)N[C@H]2c3ccccc3C[C@H]2O)cc1`, the inhibition in test [1] is 36.5%; in test [2], 44.2%; in test [3], 98.2%; in test [4] it was 31.5 to 93%; in test [5], 87.7%; in test [6], 63.1%.
Regarding `Cc1ccc(S(=O)(=O)NC[C@@H](O)C[C@@H](Cc2ccccc2)C(=O)N[C@H]2c3ccccc3C[C@H]2O)c(C)c1`, the inhibition in test [1] is 14.1%; in test [2] it was 10.9%; in test [3], 23.3%; in test [4] it was 2.8 to 27.6%; in test [5] it was 31.8%; in test [6], 20.3%.
Regarding `O=C(NC1CCCc2ccccc21)[C@@H](Cc1ccccc1)C[C@H](O)CNS(=O)(=O)c1ccc([N+](=O)[O-])cc1` (some centres not stated), the inhibition in test [1] is 5.1%; in test [2], 6.6 to 69.5%; in test [3], 17.4 to 69.5%; in test [4], 4.8 to 9%; in test [5], 0.6%; in test [6] it was 5.9%.
Turning to `COc1ccc(S(=O)(=O)NC[C@@H](O)C[C@@H](Cc2ccccc2)C(=O)N[C@H]2c3ccccc3C[C@H]2O)cc1`, the inhibition is 33.9% in test [1]; 45.9% in test [2]; 93.8% in test [3]; 54.1 to 91.6% in test [4]; 89.4% in test [5]; 76.7% in test [6].
